The term IC50 denotes the concentration that gives 50% inhibition. What is called AC50 is the concentration at which the activity in the assay is half-maximal. One may read the EC50 as the concentration giving half of the maximal effect.

Each structure is given as a SMILES string. Active and inactive are the calls of the source. A value given as a limit tells only on which side of the number the result lay.

This passage reports IC50, AC50 and EC50 results from ChEMBL document CHEMBL1201862, “PubChem BioAssay data set” (2004).

The target in assay [1] is Glucose-6-phosphate 1-dehydrogenase (Homo sapiens, UniProt P11413). Nature of the assay: inhibition of Homo sapiens G6PD, dose series – biochemical, fluorescence, selectivity assay for P. falciparum G6PD inhibitor project, dose response (AID 504792). It is filed as functional.
Assay [2] deals with T1, High affinity choline transporter 1 (Homo sapiens, UniProt Q9GZV3).
T1 sequence (Q9GZV3 whole entry): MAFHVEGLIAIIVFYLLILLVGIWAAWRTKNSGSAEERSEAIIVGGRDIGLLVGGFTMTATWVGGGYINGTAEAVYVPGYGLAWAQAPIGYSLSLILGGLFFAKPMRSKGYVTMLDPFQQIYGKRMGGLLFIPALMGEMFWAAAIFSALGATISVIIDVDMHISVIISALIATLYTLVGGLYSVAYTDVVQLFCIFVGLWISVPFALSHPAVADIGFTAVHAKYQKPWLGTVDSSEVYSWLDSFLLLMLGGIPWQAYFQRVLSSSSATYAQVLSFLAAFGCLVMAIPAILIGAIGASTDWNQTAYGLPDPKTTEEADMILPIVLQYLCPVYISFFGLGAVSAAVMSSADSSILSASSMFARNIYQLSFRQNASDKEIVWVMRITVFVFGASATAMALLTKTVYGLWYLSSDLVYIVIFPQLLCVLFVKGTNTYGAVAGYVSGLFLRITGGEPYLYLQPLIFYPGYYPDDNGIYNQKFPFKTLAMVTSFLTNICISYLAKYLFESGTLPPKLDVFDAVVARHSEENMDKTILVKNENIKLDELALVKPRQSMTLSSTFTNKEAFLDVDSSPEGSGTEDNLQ
Kind of assay: human choline transporter blockers, potency – cell-based, 5-point CRC, membrane potential dye, dose response (AID 504840). It is filed as functional.

The target in another assay is CAAX prenyl protease 1 (Saccharomyces cerevisiae S288c, UniProt P47154). Kind of assay: yeast CAAX protease Ste24 inhibition – biochemical, S. cerevisiae, plate reader, cherry-pick, dose response (AID 488815).
The target in a further assay is Trypsin (Sus scrofa, UniProt P00761). Kind of assay: trypsin protease activity blockade – biochemical, quenched peptide fluorescence, cherry-pick, selectivity assay for Rce1 protease inhibitor project, dose response (AID 488789).
In the next assay the target is Kallikrein-7 (Homo sapiens, UniProt P49862). Nature of the assay: Fluorescence Intensity-based biochemical primary high throughput dose response assay to identify activators of kallikrein-7 (K7) zymogen.
In a further assay the target is T2, CAAX prenyl protease 2 (Homo sapiens, UniProt Q9Y256).
T2 sequence (Q9Y256 whole entry): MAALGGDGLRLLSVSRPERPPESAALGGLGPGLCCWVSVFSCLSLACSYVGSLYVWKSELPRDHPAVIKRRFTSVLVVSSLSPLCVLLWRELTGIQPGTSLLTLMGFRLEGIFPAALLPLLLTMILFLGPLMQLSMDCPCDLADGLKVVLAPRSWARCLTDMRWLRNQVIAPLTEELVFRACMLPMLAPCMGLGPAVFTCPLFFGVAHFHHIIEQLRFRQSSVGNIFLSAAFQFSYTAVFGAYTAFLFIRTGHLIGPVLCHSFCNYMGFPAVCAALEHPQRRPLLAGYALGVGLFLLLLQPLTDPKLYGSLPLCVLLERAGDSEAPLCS
Kind of assay: inhibition of Ras-converting CAAX protease Rce1 – biochemical, yeast membranes, quenched-peptide fluorescence, cherry-pick, dose response (AID 588849).

Assay [3] deals with T3, Sentrin-specific protease 6 (Homo sapiens, UniProt Q9GZR1).
T3 sequence (Q9GZR1 whole entry): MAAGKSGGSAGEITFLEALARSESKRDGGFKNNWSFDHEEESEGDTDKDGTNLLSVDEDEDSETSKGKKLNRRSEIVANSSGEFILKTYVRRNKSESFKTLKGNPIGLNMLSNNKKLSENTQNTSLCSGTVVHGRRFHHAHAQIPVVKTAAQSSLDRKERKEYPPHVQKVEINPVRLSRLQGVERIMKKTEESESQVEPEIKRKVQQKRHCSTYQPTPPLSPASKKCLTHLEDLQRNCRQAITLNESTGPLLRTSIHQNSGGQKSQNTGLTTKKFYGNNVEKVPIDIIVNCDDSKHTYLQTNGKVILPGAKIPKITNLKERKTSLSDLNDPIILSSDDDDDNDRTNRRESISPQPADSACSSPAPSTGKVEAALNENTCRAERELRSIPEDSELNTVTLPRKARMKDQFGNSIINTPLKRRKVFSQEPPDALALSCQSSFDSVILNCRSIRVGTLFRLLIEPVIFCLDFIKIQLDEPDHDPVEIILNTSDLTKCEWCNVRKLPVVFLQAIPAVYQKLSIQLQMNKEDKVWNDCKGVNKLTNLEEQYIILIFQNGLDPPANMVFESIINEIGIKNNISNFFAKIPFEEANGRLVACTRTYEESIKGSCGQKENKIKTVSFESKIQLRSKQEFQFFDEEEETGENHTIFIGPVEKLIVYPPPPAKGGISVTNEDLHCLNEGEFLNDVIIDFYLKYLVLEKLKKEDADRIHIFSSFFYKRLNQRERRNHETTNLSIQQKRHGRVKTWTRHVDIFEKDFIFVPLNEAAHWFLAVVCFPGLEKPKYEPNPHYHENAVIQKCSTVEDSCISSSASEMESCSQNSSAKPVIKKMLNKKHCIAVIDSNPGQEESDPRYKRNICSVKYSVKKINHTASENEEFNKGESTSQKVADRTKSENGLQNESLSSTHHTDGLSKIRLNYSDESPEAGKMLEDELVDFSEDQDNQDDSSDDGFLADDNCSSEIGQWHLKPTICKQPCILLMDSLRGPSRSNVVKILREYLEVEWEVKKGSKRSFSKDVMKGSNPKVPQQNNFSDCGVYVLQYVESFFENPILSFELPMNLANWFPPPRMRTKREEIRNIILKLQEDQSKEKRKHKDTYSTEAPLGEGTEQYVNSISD
It is filed as functional.

Assay [4] addresses T4, Sentrin-specific protease 8 (Homo sapiens, UniProt Q96LD8).
T4 sequence (Q96LD8 whole entry): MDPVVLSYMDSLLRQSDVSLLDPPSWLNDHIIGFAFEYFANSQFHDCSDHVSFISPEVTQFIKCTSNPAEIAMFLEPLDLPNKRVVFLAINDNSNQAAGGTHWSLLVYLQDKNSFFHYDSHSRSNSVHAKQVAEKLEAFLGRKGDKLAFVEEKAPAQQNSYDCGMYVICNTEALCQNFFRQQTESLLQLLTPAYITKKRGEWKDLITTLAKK
It is filed as functional.

Another assay concerns the target Large T antigen (Simian virus 40, UniProt P03070). It is filed as functional, Betapolyomavirus macacae.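 Note: Confirmatory-stage PubChem screen for compounds that inhibit SV40 T antigen.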
Assay [5] deals with T5, Sentrin-specific protease 7 (Homo sapiens, UniProt Q9BQF6).
T5 sequence (Q9BQF6 whole entry): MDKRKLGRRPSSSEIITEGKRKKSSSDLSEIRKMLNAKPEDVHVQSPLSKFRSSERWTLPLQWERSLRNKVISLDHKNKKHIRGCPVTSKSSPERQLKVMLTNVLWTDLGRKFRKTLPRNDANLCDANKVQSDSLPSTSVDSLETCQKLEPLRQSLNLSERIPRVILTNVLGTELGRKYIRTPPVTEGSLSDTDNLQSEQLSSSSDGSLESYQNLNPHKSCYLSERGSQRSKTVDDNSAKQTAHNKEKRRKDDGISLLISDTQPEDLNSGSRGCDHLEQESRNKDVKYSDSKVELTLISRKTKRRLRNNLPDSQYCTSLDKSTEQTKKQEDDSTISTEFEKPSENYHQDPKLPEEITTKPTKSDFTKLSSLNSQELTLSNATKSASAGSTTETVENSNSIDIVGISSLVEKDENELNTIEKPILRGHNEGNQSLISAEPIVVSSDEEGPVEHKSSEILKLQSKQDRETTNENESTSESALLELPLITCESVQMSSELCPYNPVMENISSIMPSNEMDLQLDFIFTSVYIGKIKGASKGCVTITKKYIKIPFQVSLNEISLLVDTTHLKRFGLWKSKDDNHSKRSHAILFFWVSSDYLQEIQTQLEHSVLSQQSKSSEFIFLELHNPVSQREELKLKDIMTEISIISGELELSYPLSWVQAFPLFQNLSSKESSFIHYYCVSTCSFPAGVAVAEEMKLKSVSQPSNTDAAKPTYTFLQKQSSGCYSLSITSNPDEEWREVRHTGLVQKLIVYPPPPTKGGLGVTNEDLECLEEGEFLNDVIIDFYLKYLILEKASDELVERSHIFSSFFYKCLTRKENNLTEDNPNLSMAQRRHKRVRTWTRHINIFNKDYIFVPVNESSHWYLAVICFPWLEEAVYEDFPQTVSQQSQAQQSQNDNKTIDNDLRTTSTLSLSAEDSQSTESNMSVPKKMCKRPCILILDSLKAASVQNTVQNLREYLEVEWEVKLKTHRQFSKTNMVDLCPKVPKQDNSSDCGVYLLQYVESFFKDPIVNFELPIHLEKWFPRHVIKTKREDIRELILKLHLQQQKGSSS
In kind it is functional.

A further assay addresses T6, Caspase-3 (Homo sapiens, UniProt P42574).
T6 sequence (P42574 whole entry): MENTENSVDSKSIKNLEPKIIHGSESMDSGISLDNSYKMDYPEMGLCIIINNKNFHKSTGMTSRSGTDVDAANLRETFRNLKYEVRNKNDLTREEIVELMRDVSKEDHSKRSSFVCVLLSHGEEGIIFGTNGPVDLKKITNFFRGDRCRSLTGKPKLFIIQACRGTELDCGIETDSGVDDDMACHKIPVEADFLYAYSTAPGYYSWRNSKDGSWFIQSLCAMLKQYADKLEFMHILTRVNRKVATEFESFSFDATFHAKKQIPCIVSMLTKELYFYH
In kind it is functional.

Trypsin, sequence (P00761 whole entry): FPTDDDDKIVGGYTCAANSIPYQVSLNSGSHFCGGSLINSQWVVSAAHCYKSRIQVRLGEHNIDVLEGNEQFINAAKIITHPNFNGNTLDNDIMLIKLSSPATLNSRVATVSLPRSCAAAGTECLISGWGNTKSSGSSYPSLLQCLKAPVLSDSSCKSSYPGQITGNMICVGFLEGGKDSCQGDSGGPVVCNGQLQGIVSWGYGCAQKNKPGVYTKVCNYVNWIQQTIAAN
CAAX prenyl protease 1, sequence (P47154 whole entry): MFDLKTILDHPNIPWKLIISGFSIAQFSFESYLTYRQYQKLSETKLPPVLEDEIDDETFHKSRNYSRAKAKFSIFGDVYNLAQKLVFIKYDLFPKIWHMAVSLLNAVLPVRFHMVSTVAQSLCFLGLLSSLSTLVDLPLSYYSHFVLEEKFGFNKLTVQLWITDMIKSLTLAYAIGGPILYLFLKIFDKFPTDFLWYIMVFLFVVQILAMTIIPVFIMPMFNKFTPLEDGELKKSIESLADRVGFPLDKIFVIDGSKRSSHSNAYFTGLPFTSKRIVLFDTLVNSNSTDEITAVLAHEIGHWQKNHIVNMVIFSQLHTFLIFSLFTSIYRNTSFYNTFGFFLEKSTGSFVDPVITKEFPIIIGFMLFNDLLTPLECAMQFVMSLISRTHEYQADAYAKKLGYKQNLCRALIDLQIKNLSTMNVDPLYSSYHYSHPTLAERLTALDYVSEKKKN
Large T antigen, sequence (P03070 whole entry): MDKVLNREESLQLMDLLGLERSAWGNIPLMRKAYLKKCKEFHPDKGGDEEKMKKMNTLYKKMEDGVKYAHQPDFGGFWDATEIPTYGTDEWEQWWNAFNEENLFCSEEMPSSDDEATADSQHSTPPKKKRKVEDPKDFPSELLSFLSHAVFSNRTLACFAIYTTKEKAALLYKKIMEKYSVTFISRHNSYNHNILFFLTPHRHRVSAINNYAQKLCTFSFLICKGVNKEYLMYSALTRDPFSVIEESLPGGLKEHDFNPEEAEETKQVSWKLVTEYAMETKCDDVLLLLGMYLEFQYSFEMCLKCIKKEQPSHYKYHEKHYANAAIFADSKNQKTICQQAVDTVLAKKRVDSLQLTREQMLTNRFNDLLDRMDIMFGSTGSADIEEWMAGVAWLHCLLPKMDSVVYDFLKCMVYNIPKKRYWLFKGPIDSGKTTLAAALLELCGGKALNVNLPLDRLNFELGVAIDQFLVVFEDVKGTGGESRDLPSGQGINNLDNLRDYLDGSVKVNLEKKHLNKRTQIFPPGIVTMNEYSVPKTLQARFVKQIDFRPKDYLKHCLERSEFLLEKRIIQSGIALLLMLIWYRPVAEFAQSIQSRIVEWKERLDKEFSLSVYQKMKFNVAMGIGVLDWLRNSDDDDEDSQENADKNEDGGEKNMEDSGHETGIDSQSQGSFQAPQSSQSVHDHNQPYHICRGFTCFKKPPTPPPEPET
Kallikrein-7, sequence (P49862 whole entry): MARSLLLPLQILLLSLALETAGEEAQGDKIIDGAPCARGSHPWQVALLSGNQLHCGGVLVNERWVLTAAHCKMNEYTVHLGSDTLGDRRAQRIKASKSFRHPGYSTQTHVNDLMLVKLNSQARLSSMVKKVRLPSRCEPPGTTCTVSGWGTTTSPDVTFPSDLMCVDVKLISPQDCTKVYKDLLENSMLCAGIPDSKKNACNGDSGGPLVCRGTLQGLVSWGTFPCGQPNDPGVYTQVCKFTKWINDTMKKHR
Glucose-6-phosphate 1-dehydrogenase, sequence (P11413 whole entry): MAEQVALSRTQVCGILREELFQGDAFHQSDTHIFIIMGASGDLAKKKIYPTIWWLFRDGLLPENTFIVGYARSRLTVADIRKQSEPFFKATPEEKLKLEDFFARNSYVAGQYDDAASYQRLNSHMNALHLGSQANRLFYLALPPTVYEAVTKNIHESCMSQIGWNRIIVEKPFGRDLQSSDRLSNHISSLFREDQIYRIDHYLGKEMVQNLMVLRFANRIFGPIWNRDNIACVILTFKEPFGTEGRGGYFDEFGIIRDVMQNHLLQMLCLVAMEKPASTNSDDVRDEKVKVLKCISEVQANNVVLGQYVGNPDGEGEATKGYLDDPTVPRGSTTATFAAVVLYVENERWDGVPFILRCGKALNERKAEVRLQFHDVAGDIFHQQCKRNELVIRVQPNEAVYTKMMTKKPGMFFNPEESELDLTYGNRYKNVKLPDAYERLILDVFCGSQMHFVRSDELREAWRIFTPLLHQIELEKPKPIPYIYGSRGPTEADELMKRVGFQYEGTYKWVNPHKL

Turning to `O=C1Nc2cc(C(=O)NCCCN3CCCC3)ccc2S/C1=C\c1ccccc1`, the IC50 in [1] was > 80 µM (inactive); in assay [2] it was 14.5 µM (active).

As to `CCC(C)NC(=O)c1cc2c(=O)n3cccc(C)c3nc2s1` (centres undefined), the figures for the AC50 on CAAX prenyl protease 1, at Trypsin and at CAAX prenyl protease 2 were 1.72 µM (active), 28.5 µM (active) and 6.01 µM (active), respectively. Besides, the EC50 on Kallikrein-7 was > 69.6 µM (inactive).

Turning to `Oc1ccc(-c2nc3ccccn3c2NCc2ccco2)cc1`, the IC50 in assay [3] was 54.4 µM (active); in [4], 81.9 µM (active); at Large T antigen, 11.4 µM (active); in [5], 16 µM (active); at Caspase-3, 17.6 µM (active). In addition, the values for the AC50 at CAAX prenyl protease 1, at Trypsin and at CAAX prenyl protease 2 were 4.39 µM (active), 10.8 µM (active) and 6.52 µM (active), respectively.
